Activity calls are given as the source filed them. No cut-off for these calls is given here.
Organism: Canis lupus familiaris
Experiment: Induction of Ca2+ uptake in sarcoplasmic reticular-vesicle isolated from dog cardiac ventricle at 10 to 100 uM by fluorimetric method
Type: functional, tissue-based

Structure (SMILES) | Activity
CC/C=C/C(CC)C[C@@]1(C)C[C@@H](CC)[C@H](CC(=O)OC)OO1 (some centres undefined) | Active
CC/C=C/C(CC)CCC[C@@]1(CC)C[C@H](CC)[C@H](CC(=O)OC)OO1 (some centres undefined) | Active
CC/C=C/C(CC)CCC[C@]1(CC)C[C@H](CC)[C@H](CC(=O)OC)OO1 (some centres undefined) | Active
CC/C=C/C(CC)C/C(C)=C/[C@]1(CC)C[C@H](CC)[C@H](CC(=O)OC)OO1 (some centres undefined) | Active
